Measured values as given in PubChem BioAssay (NCI).
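Where inhibition never reached the appropriate level, the endpoint shown equals the highest concentration tested. Otherwise, values were interpolated linearly from a five-concentration, 48-hour dose response in 96-well plates. GI50 is the concentration that inhibits growth by half. TGI: total growth inhibition.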

Tests used:
Assay in all cases: NCI-60 cell line screen, 48 h
[1] = test system: MCF7 breast
[2] = test system: NCI/ADR-RES ovarian
[3] = test system: SK-MEL-2 melanoma
[4] = test system: T-47D breast
[5] = test system: OVCAR-5 ovarian
[6] = test system: U251 CNS
[7] = test system: RXF 393 renal
[8] = test system: TK-10 renal
[9] = test system: UACC-62 melanoma
[10] = test system: COLO 205 colon
[11] = test system: A498 renal
[12] = test system: SNB-19 CNS
[13] = test system: CCRF-CEM leukemia
[14] = test system: SN12C renal
[15] = test system: SW-620 colon
[16] = test system: HCT-116 colon
[17] = test system: NCI-H460 lung
[18] = test system: UO-31 renal
[19] = test system: MDA-MB-435
[20] = test system: HCT-15 colon
[21] = test system: OVCAR-3 ovarian
[22] = test system: SR leukemia
[23] = test system: UACC-257 melanoma
[24] = test system: MDA-MB-231 breast
[25] = test system: OVCAR-8 ovarian
[26] = test system: IGROV1 ovarian
[27] = test system: HOP-62 NSCLC
[28] = test system: SNB-75 CNS
[29] = test system: SF-268 CNS
[30] = test system: HS 578T breast
[31] = test system: RPMI-8226 leukemia
[32] = test system: SF-295 CNS
[33] = test system: CAKI-1 renal
[34] = test system: NCI-H226 lung
[35] = test system: NCI-H23 lung
[36] = test system: LOX IMVI melanoma
[37] = test system: PC-3 prostate
[38] = test system: SK-MEL-28 melanoma
[39] = test system: SK-OV-3 ovarian
[40] = test system: KM12 colon
[41] = test system: DU-145 prostate
[42] = test system: 786-0 renal
[43] = test system: OVCAR-4 ovarian
[44] = test system: A549 NSCLC
[45] = test system: BT-549 breast
[46] = test system: SK-MEL-5 melanoma
[47] = test system: SF-539 CNS
[48] = test system: HT29 colon
[49] = test system: HOP-92 NSCLC
[50] = test system: ACHN renal
[51] = test system: NCI-H522 lung
[52] = test system: HL-60(TB) leukemia
[53] = test system: HCC-2998 colon
[54] = test system: MOLT-4 leukemia
[55] = test system: MALME-3M melanoma
[56] = test system: K-562 leukemia
[57] = test system: M14 melanoma

Work on `COc1ccc(OC)c(N(CCN2C(=O)c3ccccc3C2=O)C(=O)CCl)c1` yielded a GI50 [1] of 14.2 µM, a TGI [1] of 43 µM and a GI50 [2] of 3.31 µM. The TGI [2] was > 19.6 µM, the GI50 [3] was 12.4 µM and the TGI [3] was 35.1 µM. It also gave a GI50 [4] of 18.9 µM, a TGI [4] of 54.4 µM and a GI50 [5] of 1.42 µM. The TGI [5] was 15.8 µM, the GI50 [6] was 3.74 µM and the TGI [6] was 17.8 µM. The GI50 [7] was 0.615 µM, the TGI [7] was 12.6 µM and the GI50 [8] was 16.9 µM. It also gave a TGI [8] of 39.9 µM, a GI50 [9] of 6.24 µM and a TGI [9] of 21.6 µM. For the same compound, the GI50 [10] was 13.5 µM, the TGI [10] was 29.3 µM and the GI50 [11] was 6.81 µM. The TGI [11] was 25.4 µM, the GI50 [12] was 30.4 µM and the TGI [12] was > 100 µM. It also gave a GI50 [13] of 0.229 µM, a TGI [13] of 0.542 µM and a GI50 [14] of 22.7 µM. The TGI [14] was > 100 µM, the GI50 [15] was 15.3 µM and the TGI [15] was > 58.5 µM. The GI50 [16] was 17.7 µM, the TGI [16] was 59.5 µM and the GI50 [17] was 13.5 µM. It also gave a TGI [17] of 48.5 µM, a GI50 [18] of 0.0667 µM and a TGI [18] of 0.154 µM. For the same compound, the GI50 [19] was 15.6 µM, the TGI [19] was 66.7 µM and the GI50 [20] was 11.6 µM. For the same compound, the TGI [20] was > 54.6 µM, the GI50 [21] was 0.641 µM and the TGI [21] was 1.62 µM. For the same compound, the GI50 [22] was 0.119 µM, the GI50 [23] was 20.7 µM and the TGI [23] was 88 µM. It also gave a GI50 [24] of 1.24 µM, a TGI [24] of 7.51 µM and a GI50 [25] of 7.5 µM. For the same compound, the TGI [25] was 46.3 µM, the GI50 [26] was 0.121 µM and the TGI [26] was 0.299 µM. The GI50 [27] was 0.379 µM, the TGI [27] was 1.97 µM and the GI50 [28] was 0.288 µM. For the same compound, the TGI [28] was 1.22 µM, the GI50 [29] was 0.931 µM and the TGI [29] was 3.2 µM. For the same compound, the GI50 [30] was 13.7 µM, the TGI [30] was 68.9 µM and the GI50 [31] was 2.06 µM. It also gave a TGI [31] of 9.34 µM, a GI50 [32] of 1.09 µM and a TGI [32] of 2.44 µM. The GI50 [33] was 0.482 µM, the TGI [33] was 2 µM and the GI50 [34] was 30.9 µM. The TGI [34] was > 89.2 µM, the GI50 [35] was 2.26 µM and the TGI [35] was 12.3 µM. It also gave a GI50 [36] of 0.191 µM, a TGI [36] of 0.406 µM and a GI50 [37] of 14 µM. It also gave a TGI [37] of 67 µM, a GI50 [38] of 23.4 µM and a TGI [38] of 91.2 µM. For the same compound, the GI50 [39] was 0.688 µM, the TGI [39] was 2.05 µM and the GI50 [40] was 0.617 µM. The TGI [40] was 5.17 µM, the GI50 [41] was 6.09 µM and the TGI [41] was 37.7 µM. For the same compound, the GI50 [42] was 0.901 µM, the TGI [42] was 3.1 µM and the GI50 [43] was 0.23 µM. It also gave a TGI [43] of 0.554 µM, a GI50 [44] of 9.35 µM and a TGI [44] of 44.7 µM. It also gave a GI50 [45] of 17.9 µM, a TGI [45] of 46.7 µM and a GI50 [46] of 16 µM. It also gave a TGI [46] of 35.3 µM, a GI50 [47] of 1.13 µM and a TGI [47] of 2.68 µM. For the same compound, the GI50 [48] was 0.497 µM, the TGI [48] was 2.15 µM and the GI50 [49] was 0.181 µM. It also gave a TGI [49] of 0.48 µM, a GI50 [50] of 0.831 µM and a TGI [50] of 4.85 µM. The GI50 [51] was 0.0631 µM, the TGI [51] was 0.157 µM and the GI50 [52] was 0.202 µM. For the same compound, the TGI [52] was 0.411 µM, the GI50 [53] was 20.4 µM and the TGI [53] was 56 µM. The GI50 [54] was 10.3 µM, the TGI [54] was 37.7 µM and the GI50 [55] was 0.706 µM. The TGI [55] was 3.16 µM, the GI50 [56] was 21.3 µM and the TGI [56] was > 70.4 µM. The GI50 [57] was 24.6 µM and the TGI [57] was > 100 µM.

`O=C1/C(=C/c2ccc(Cl)cc2Cl)CN(S(=O)(=O)c2ccccc2)C/C1=C\c1ccc(Cl)cc1Cl` was tested, and the GI50 [1] was 0.292 µM, the TGI [1] was > 100 µM and the GI50 [2] was 1.15 µM. For the same compound, the TGI [2] was > 100 µM, the GI50 [3] was 15.4 µM and the TGI [3] was > 100 µM. It also gave a GI50 [4] of 0.594 µM, a GI50 [5] of 1.02 µM and a TGI [5] of 4.65 µM. For the same compound, the GI50 [6] was 0.173 µM, the TGI [6] was 0.351 µM and the GI50 [7] was 1.05 µM. For the same compound, the TGI [7] was 2.68 µM, the GI50 [9] was 1.18 µM and the TGI [9] was 4.41 µM. The GI50 [10] was 0.339 µM, the TGI [10] was 1.21 µM and the GI50 [11] was 1.5 µM. For the same compound, the TGI [11] was 8.76 µM, the GI50 [12] was 0.496 µM and the TGI [12] was 10.8 µM. For the same compound, the GI50 [13] was 0.291 µM, the TGI [13] was 1.3 µM and the GI50 [14] was 0.288 µM. The TGI [14] was 1.1 µM, the GI50 [15] was 0.314 µM and the TGI [15] was 2.54 µM. The GI50 [16] was 0.198 µM, the TGI [16] was 0.421 µM and the GI50 [17] was 0.224 µM. For the same compound, the TGI [17] was 0.498 µM, the GI50 [18] was 0.233 µM and the TGI [18] was 0.675 µM. The GI50 [19] was 0.701 µM, the TGI [19] was 2.89 µM and the GI50 [20] was 0.226 µM. For the same compound, the TGI [20] was 0.614 µM, the GI50 [21] was 0.259 µM and the TGI [21] was 0.62 µM. For the same compound, the GI50 [22] was 0.198 µM, the TGI [22] was 0.925 µM and the GI50 [23] was 17.7 µM. For the same compound, the TGI [23] was > 100 µM, the GI50 [24] was 0.469 µM and the TGI [24] was 2.67 µM. For the same compound, the GI50 [25] was 0.313 µM, the GI50 [26] was 0.344 µM and the TGI [26] was 1.29 µM. The GI50 [27] was 0.343 µM, the GI50 [28] was 0.473 µM and the TGI [28] was 8.2 µM. For the same compound, the GI50 [29] was 0.385 µM, the TGI [29] was > 35.7 µM and the GI50 [30] was 0.322 µM. For the same compound, the TGI [30] was 3.87 µM, the GI50 [31] was 0.196 µM and the TGI [31] was 0.562 µM. The GI50 [32] was 0.279 µM, the TGI [32] was 1.99 µM and the GI50 [33] was 0.817 µM. For the same compound, the TGI [33] was 4.22 µM, the GI50 [34] was 0.513 µM and the TGI [34] was 1.35 µM. For the same compound, the GI50 [35] was 0.381 µM, the TGI [35] was 2.4 µM and the GI50 [36] was 0.193 µM. The TGI [36] was 0.395 µM, the GI50 [37] was 0.299 µM and the TGI [37] was 0.979 µM. For the same compound, the GI50 [38] was 8.29 µM, the TGI [38] was > 100 µM and the GI50 [39] was 7.32 µM. For the same compound, the TGI [39] was 98.9 µM, the GI50 [40] was 0.276 µM and the TGI [40] was 0.728 µM. For the same compound, the GI50 [41] was 0.466 µM, the TGI [41] was 19.7 µM and the GI50 [42] was 0.23 µM. For the same compound, the TGI [42] was 0.509 µM, the GI50 [43] was 0.291 µM and the TGI [43] was > 96 µM. It also gave a GI50 [44] of 0.316 µM, a TGI [44] of 1.51 µM and a GI50 [45] of 0.617 µM. The TGI [45] was 2.64 µM, the GI50 [46] was 14.5 µM and the TGI [46] was > 100 µM. It also gave a GI50 [47] of 0.315 µM, a TGI [47] of 1.13 µM and a GI50 [48] of 0.301 µM. The TGI [48] was 0.907 µM, the GI50 [49] was 1.7 µM and the TGI [49] was 5.55 µM. For the same compound, the GI50 [50] was 0.717 µM, the TGI [50] was 6.88 µM and the GI50 [51] was 1.13 µM. For the same compound, the TGI [51] was 3.93 µM, the GI50 [52] was 0.731 µM and the TGI [52] was > 19.9 µM. For the same compound, the GI50 [53] was 0.379 µM, the TGI [53] was 1.31 µM and the GI50 [54] was 0.46 µM. The TGI [54] was 12 µM, the GI50 [55] was 7.2 µM and the TGI [55] was > 100 µM. The GI50 [56] was 0.326 µM, the TGI [56] was > 38.3 µM and the GI50 [57] was 2.77 µM. For the same compound, the TGI [57] was > 100 µM.
